Measured values as given in patent US20210113602A1, “USE OF 6-THIO-2'-DEOXYGUANOSINE (6-THIO-dG) TO TREAT MELANOMA” (The Board of Regents of the University of Texas System, priority 2018, published 2021).

Tests used:
[1] = system: NRAS mutant melanoma cells; assay: Mitochondrial ROS, MitoSox Red; format: cell-based, human; conditions: 1 μM 6-thio-dG for 7 days
Experimental: FIGS. 3a-g. Telomere dysfunction enhances oxidative stress leading to upregulation of an antioxidant program. (FIGS. 3a-d) NRASmut melanoma cells were transduced with TERT shRNA (FIG. 3a, FIG. 3c) or treated with 1 μM 6-thio-dG for 7 days (FIG. 3b, FIG. 3d). mRNA levels of the indicated genes were quantified by qRT-PCR (FIG. 3a, FIG. 3b). Mitochondrial superoxide production was measured by MitoSox Red fluorescence (FIG. 3c, FIG. 3d) and expressed as fluorescence relative to vector or DMSO controls. (FIG. 3e) NRASmut melanoma cells were treated with 1 μM of 6-thio-dG for the indicated times and SOD2 protein levels measured by Western blotting. (FIG. 3f) SOD2 was silenced using shRNA. Transduced M93-047 cells were treated with DMSO or 1 μM of 6-thio-dG and cell death was assessed by Annexin V/PI straining. (FIG. 3g) M93-047 cells were transduced with a SOD2 lentiviral construct or empty vector control (pLX304). Transduced cells were treated with increasing doses (1, 2.5 and 5 μM) of 6-thio-dG for 7 days and cell death was assessed. […]
FIGS. 4a-e. […] Cell death was assessed by Annexin V and PI staining. […] Cells were stained with Annexin V and PI and percent cell death was determined by flow cytometry. (FIGS. 4c-e) Cells were treated as in FIG. 4b and mitochondrial ROS levels were measured using Mitosox Red by FACS. […] P values were calculated using unpaired Student's t-test; * p<0.05; ***p<0.005. […]

[2] = system: non-transformed primary human fibroblasts; assay: Cell viability, Alamar Blue assay; format: cell-based; conditions: 7 days; telomerase negative cells
Experimental: (§1) FIGS. 2a-h. […] (FIGS. 2a-c) NRASmut melanoma cells (FIG. 2a), BRAF-V600E/NRAS mutant cells derived from melanoma patients resistant to BRAF/MEK inhibitors (FIG. 2b), or non-transformed melanocytes and fibroblasts (FIG. 2c) were treated with 6-thio-dG for 7 days. Cell viability was measured by Alamar Blue assay and calculated relative to DMSO-treated cells. (FIG. 2d) NRASmut melanoma cells and non-transformed human fibroblasts were treated with 1 or 5 μM 6-thio-dG for 7 or 14 days. Cell death was assessed by PSVUe staining. Percent of apoptotic cells is shown. (FIG. 2e) Cells were treated with DMSO or 1 μM 6-thio-dG for 14 days and telomere length was assessed by Southern blotting of TRF. Mean TRF length expressed as kilobase pairs is indicated at the bottom. (FIGS. 2f-g) Cells were treated with 1 μM 6-thio-dG for 7 days. (FIG. 2f) ROS production was measured by H2DCFDA fluorescence and normalized to MSO treated cells. (FIG. 2g) DNA damage was assessed by γH2AX staining. […] Tumor volume was measured and average tumor volume (n=4)±SEM was plotted vs. time.
(§2) Cell culture, viability and cell death assays. […] Cell viability was assessed following 6 hr incubation with 500 μM Alamar Blue (ThermoFisher Scientific, Waltham, Mass.) using an EnVision Xcite Multilabel plate reader (Perkin Elmer, Waltham, Mass.). […]

[3] = system: non-transformed primary human melanocytes; assay: Cell viability, Alamar Blue assay; format: cell-based; conditions: 7 days; telomerase negative cells
Experimental: as §1, §2

[4] = system: detoxifying enzymes such as SOD2, GPX1 and UCP2; assay: mRNA levels of detoxifying enzymes by qRT-PCR; format: cell-based, human; conditions: 1 μM 6-thio-dG for 7 days
Experimental: FIGS. 3a-g. Telomere dysfunction enhances oxidative stress leading to upregulation of an antioxidant program. (FIGS. 3a-d) NRASmut melanoma cells were transduced with TERT shRNA (FIG. 3a, FIG. 3c) or treated with 1 μM 6-thio-dG for 7 days (FIG. 3b, FIG. 3d). mRNA levels of the indicated genes were quantified by qRT-PCR (FIG. 3a, FIG. 3b). Mitochondrial superoxide production was measured by MitoSox Red fluorescence (FIG. 3c, FIG. 3d) and expressed as fluorescence relative to vector or DMSO controls. (FIG. 3e) NRASmut melanoma cells were treated with 1 μM of 6-thio-dG for the indicated times and SOD2 protein levels measured by Western blotting. (FIG. 3f) SOD2 was silenced using shRNA. Transduced M93-047 cells were treated with DMSO or 1 μM of 6-thio-dG and cell death was assessed by Annexin V/PI straining. (FIG. 3g) M93-047 cells were transduced with a SOD2 lentiviral construct or empty vector control (pLX304). Transduced cells were treated with increasing doses (1, 2.5 and 5 μM) of 6-thio-dG for 7 days and cell death was assessed. Data represent average from three independent experiments±SEM. *p<0.05; **p<0.01; ***p<0.005 in unpaired Student's t-test.

[5] = system: NRAS-WT/BRAF-WT melanoma cells; assay: Cell death, Annexin V/PI; format: cell-based, human; conditions: single agents or combination; 1 μM 6-thio-dG, 5 μM Gam
[6] = system: NRAS mutant SKNAS cells; assay: Cell death, Annexin V/PI; format: cell-based, human; conditions: single agents or combination; 1 μM 6-thio-dG, 5 μM Gam
[7] = system: NRAS mutant melanoma cells; assay: DNA damage, γH2AX staining; format: cell-based, human; conditions: 1 μM for 7 days
Experimental: FIGS. 2a-h. […] (FIGS. 2a-c) NRASmut melanoma cells (FIG. 2a), BRAF-V600E/NRAS mutant cells derived from melanoma patients resistant to BRAF/MEK inhibitors (FIG. 2b), or non-transformed melanocytes and fibroblasts (FIG. 2c) were treated with 6-thio-dG for 7 days. Cell viability was measured by Alamar Blue assay and calculated relative to DMSO-treated cells. (FIG. 2d) NRASmut melanoma cells and non-transformed human fibroblasts were treated with 1 or 5 μM 6-thio-dG for 7 or 14 days. Cell death was assessed by PSVUe staining. Percent of apoptotic cells is shown. (FIG. 2e) Cells were treated with DMSO or 1 μM 6-thio-dG for 14 days and telomere length was assessed by Southern blotting of TRF. Mean TRF length expressed as kilobase pairs is indicated at the bottom. (FIGS. 2f-g) Cells were treated with 1 μM 6-thio-dG for 7 days. (FIG. 2f) ROS production was measured by H2DCFDA fluorescence and normalized to MSO treated cells. (FIG. 2g) DNA damage was assessed by γH2AX staining. Data represent average from three independent experiments±SEM. *p<0.05; **p<0.01; ***p<0.005 in unpaired Student's t-test. […] Tumor volume was measured and average tumor volume (n=4)±SEM was plotted vs. time.
DNA damage and telomere dysfunction assay (TIF). […] Mean fluorescence staining was quantified by flow cytometry. […]

## Nc1nc2c(ncn2[C@H]2C[C@H](O)[C@@H](CO)O2)c(=S)[nH]1 [6-thio-dG, 6-thio-2′-deoxy-guanosine]
[1]
  mitochondrial ROS levels: increased mitochondrial ROS levels
[2]
  cell viability: did not significantly affect
[3]
  cell viability: did not significantly affect
[4]
  GPX1 expression: upregulation
  SOD2 expression: upregulation
  UCP2 expression: upregulation
[5]
  cell death: did not induce cell death
[6]
  cell death: triggered significant death
[7]
  γH2AX levels: increased levels
